Source: PMC5218480 (PLoS ONE, 2017)

Tested on: MV-4-11 cells
Experiment: Gene expression microarray analysis (Affymetrix PrimeView) and GSEA
Type: cell-based, human
Set-up: RFU PODN (11730768_x_at) / Fold change /veh PODN (11730768_x_at) / RFU LINC00158 (11744669_a_at) / Fold change /veh LINC00158 (11744669_a_at) / RFU DUSP10 (11751237_a_at) / Fold change /veh DUSP10 (11751237_a_at) / RFU ID3 (11757404_x_at) / Fold change /veh ID3 (11757404_x_at) / RFU PLEKHG5 (11737974_s_at) / Fold change /veh PLEKHG5 (11737974_s_at) / RFU LRRC4B (11730491_at) / Fold change /veh LRRC4B (11730491_at) / RFU GIMAP4 (11747438_a_at) / Fold change /veh GIMAP4 (11747438_a_at) / RFU KRT8 (11758183_x_at) / Fold change /veh KRT8 (11758183_x_at) / RFU CNN1 (11734310_a_at) / Fold change /veh CNN1 (11734310_a_at) / RFU VPS37D (11726825_at) / Fold change /veh VPS37D (11726825_at) / RFU C10orf10 (11716522_x_at) / Fold change /veh C10orf10 (11716522_x_at) / RFU KIR2DL2 /// KIR2DL4 /// KIR2DL5A /// KIR2DL5B /// KIR2DS1 /// KIR2DS2 /// KIR2DS3 /// KIR2DS4 /// KIR3DL3 /// KIR3DL3 /// KIR3DS1 (11738374_at) / Fold change /veh KIR2DL2 /// KIR2DL4 /// KIR2DL5A /// KIR2DL5B /// KIR2DS1 /// KIR2DS2 /// KIR2DS3 /// KIR2DS4 /// KIR3DL3 /// KIR3DL3 /// KIR3DS1 (11738374_at) / RFU C1QL1 (11718748_at) / Fold change /veh C1QL1 (11718748_at) / RFU TMPRSS4 (11747572_a_at) / Fold change /veh TMPRSS4 (11747572_a_at) / RFU HAMP (11756126_x_at) / Fold change /veh HAMP (11756126_x_at) / RFU RNFT2 (11725882_a_at) / Fold change /veh RNFT2 (11725882_a_at) / RFU NR4A2 (11747474_a_at) / Fold change /veh NR4A2 (11747474_a_at) / RFU ABCC12 (11746883_a_at) / Fold change /veh ABCC12 (11746883_a_at) / RFU TMEM136 (11760407_x_at) / Fold change /veh TMEM136 (11760407_x_at) / RFU CLDN22 /// WWC2 (11732394_at) / Fold change /veh CLDN22 /// WWC2 (11732394_at) / RFU HLA-DPB1 (11760878_x_at) / Fold change /veh HLA-DPB1 (11760878_x_at) / RFU SPINT1 (11716480_a_at) / Fold change /veh SPINT1 (11716480_a_at) / RFU GAP43 (11754022_s_at) / Fold change /veh GAP43 (11754022_s_at) / RFU A4GNT (11735810_at) / Fold change /veh A4GNT (11735810_at) / RFU PRB3 (11715151_x_at) / Fold change /veh PRB3 (11715151_x_at) / RFU TUBB4B (11761932_at) / Fold change /veh TUBB4B (11761932_at) / RFU CAPN14 (11732068_a_at) / Fold change /veh CAPN14 (11732068_a_at) / RFU TMCC2 (11721928_a_at) / Fold change /veh TMCC2 (11721928_a_at) / RFU IRGQ (11745062_a_at) / Fold change /veh IRGQ (11745062_a_at) / RFU FAM174B (11720279_a_at) / Fold change /veh FAM174B (11720279_a_at) / RFU TMPRSS4 (11748680_a_at) / Fold change /veh TMPRSS4 (11748680_a_at) / RFU FAM212B (11763350_a_at) / Fold change /veh FAM212B (11763350_a_at) / RFU PLEKHG5 (11743358_a_at) / Fold change /veh PLEKHG5 (11743358_a_at) / RFU ZSCAN30 (11745921_a_at) / Fold change /veh ZSCAN30 (11745921_a_at) / RFU CMKLR1 (11741424_a_at) / Fold change /veh CMKLR1 (11741424_a_at) / RFU LOC101060620 /// MAPK8IP1 (11723275_at) / Fold change /veh LOC101060620 /// MAPK8IP1 (11723275_at) / RFU SPTSSB (11747773_x_at) / Fold change /veh SPTSSB (11747773_x_at) / RFU PRSS12 (11739890_at) / Fold change /veh PRSS12 (11739890_at) / RFU BIN1 (11741810_x_at) / Fold change /veh BIN1 (11741810_x_at) / RFU WNT11 (11732464_a_at) / Fold change /veh WNT11 (11732464_a_at) / RFU C10orf10 (11716521_a_at) / Fold change /veh C10orf10 (11716521_a_at) / RFU C5orf56 (11738089_at) / Fold change /veh C5orf56 (11738089_at) / RFU CYB561 (11721691_x_at) / Fold change /veh CYB561 (11721691_x_at) / RFU ANKRD19P (11752326_a_at) / Fold change /veh ANKRD19P (11752326_a_at) / RFU OR2T12 /// OR2T33 /// OR2T8 (11738714_s_at) / Fold change /veh OR2T12 /// OR2T33 /// OR2T8 (11738714_s_at) / RFU VCAN (11748164_a_at) / Fold change /veh VCAN (11748164_a_at) / RFU JSRP1 (11732532_at) / Fold change /veh JSRP1 (11732532_at) / RFU KRTAP10-11 (11738290_x_at) / Fold change /veh KRTAP10-11 (11738290_x_at) / RFU MYO3A (11730013_a_at) / Fold change /veh MYO3A (11730013_a_at) / RFU EBF3 (11725865_a_at) / Fold change /veh EBF3 (11725865_a_at) / RFU CAMK2N1 (11719241_x_at) / Fold change /veh CAMK2N1 (11719241_x_at) / RFU C5orf56 (11738088_a_at) / Fold change /veh C5orf56 (11738088_a_at) / RFU OLFML3 (11715873_a_at) / Fold change /veh OLFML3 (11715873_a_at) / RFU LOC100653217 /// NTM (11731650_a_at) / Fold change /veh LOC100653217 /// NTM (11731650_a_at) / RFU MAPK11 (11762145_a_at) / Fold change /veh MAPK11 (11762145_a_at) / RFU FIZ1 (11724087_x_at) / Fold change /veh FIZ1 (11724087_x_at) / RFU OASL (11726364_x_at) / Fold change /veh OASL (11726364_x_at) / RFU SOX15 (11748057_x_at) / Fold change /veh SOX15 (11748057_x_at) / RFU CD79A (11719716_a_at) / Fold change /veh CD79A (11719716_a_at) / RFU HIST1H1D (11736915_at) / Fold change /veh HIST1H1D (11736915_at) / RFU CASKIN2 (11723855_a_at) / Fold change /veh CASKIN2 (11723855_a_at) / RFU LOC730098 (11760151_x_at) / Fold change /veh LOC730098 (11760151_x_at) / RFU OR4N2 (11742367_at) / Fold change /veh OR4N2 (11742367_at) / RFU PRRT2 (11749266_a_at) / Fold change /veh PRRT2 (11749266_a_at) / RFU SNX32 (11753110_a_at) / Fold change /veh SNX32 (11753110_a_at) / RFU CDHR5 (11726645_a_at) / Fold change /veh CDHR5 (11726645_a_at) / RFU RCAN1 (11760418_a_at) / Fold change /veh RCAN1 (11760418_a_at) / RFU FAM167A (11723789_a_at) / Fold change /veh FAM167A (11723789_a_at) / RFU FAM26E (11764081_at) / Fold change /veh FAM26E (11764081_at) / RFU ISYNA1 (11749810_s_at) / Fold change /veh ISYNA1 (11749810_s_at) / RFU ACY1 (11761880_at) / Fold change /veh ACY1 (11761880_at) / RFU 11764098_at / Fold change /veh 11764098_at / RFU SAMD14 (11745864_x_at) / Fold change /veh SAMD14 (11745864_x_at) / RFU NPB (11741838_a_at) / Fold change /veh NPB (11741838_a_at) / RFU TMPRSS6 (11731388_a_at) / Fold change /veh TMPRSS6 (11731388_a_at) / RFU KRTAP10-2 (11738614_at) / Fold change /veh KRTAP10-2 (11738614_at) / RFU ARHGAP8 /// PRR5-ARHGAP8 (11727945_x_at) / Fold change /veh ARHGAP8 /// PRR5-ARHGAP8 (11727945_x_at) / RFU KRTAP5-7 /// NADSYN1 (11734609_at) / Fold change /veh KRTAP5-7 /// NADSYN1 (11734609_at) / RFU RASL12 (11751679_a_at) / Fold change /veh RASL12 (11751679_a_at) / RFU CDKN2B (11736163_a_at) / Fold change /veh CDKN2B (11736163_a_at) / RFU PRF1 (11729649_at) / Fold change /veh PRF1 (11729649_at) / RFU, ZNF638 /// ZNF638-IT1 / Fold change vs veh, ZNF638 /// ZNF638-IT1 / RFU, PANK3 / Fold change vs veh, PANK3 / RFU, SH3YL1 / Fold change vs veh, SH3YL1 / RFU, ZEB2 / Fold change vs veh, ZEB2 / RFU, NRIP1 / Fold change vs veh, NRIP1 / RFU, PTTG1IP / Fold change vs veh, PTTG1IP / RFU, CAPN2 / Fold change vs veh, CAPN2 / RFU, MED14 / Fold change vs veh, MED14 / RFU, SNORA58 / Fold change vs veh, SNORA58 / RFU, C1orf63 / Fold change vs veh, C1orf63 / RFU, LRRFIP1 / Fold change vs veh, LRRFIP1 / RFU, NDUFAF7 / Fold change vs veh, NDUFAF7 / RFU, SLC12A2 / Fold change vs veh, SLC12A2 / RFU, IBTK / Fold change vs veh, IBTK / RFU, ESF1 / Fold change vs veh, ESF1 / Fold change vs veh, TMEM50B / RFU, TAOK1 / Fold change vs veh, TAOK1 / RFU, ACBD3 / Fold change vs veh, ACBD3 / RFU, TMA16 / Fold change vs veh, TMA16 / RFU, RWDD3 / Fold change vs veh, RWDD3 / RFU, BCAT1 / Fold change vs veh, BCAT1 / RFU, EDEM3 / Fold change vs veh, EDEM3 / RFU, TMEM33 / Fold change vs veh, TMEM33 / RFU, WDR75 / Fold change vs veh, WDR75 / RFU, AHCTF1 / Fold change vs veh, AHCTF1 / RFU, TFRC / Fold change vs veh, TFRC / RFU, ZDHHC17 / Fold change vs veh, ZDHHC17 / RFU, NOM1 / Fold change vs veh, NOM1 / RFU, ARL8B / Fold change vs veh, ARL8B / RFU, ZBTB11 / Fold change vs veh, ZBTB11 / RFU, TAMM41 / Fold change vs veh, TAMM41 / RFU, KIAA1704 /// LOC100996395 / Fold change vs veh, KIAA1704 /// LOC100996395 / RFU, ING1 / Fold change vs veh, ING1 / RFU, TRMT61B / Fold change vs veh, TRMT61B / RFU, FUBP3 / Fold change vs veh, FUBP3 / RFU, TP53 / Fold change vs veh, TP53 / RFU, TNKS2 / Fold change vs veh, TNKS2 / RFU, ZFP14 / Fold change vs veh, ZFP14 / RFU, ACTR2 / Fold change vs veh, ACTR2 / RFU, PPP3R1 / Fold change vs veh, PPP3R1 / RFU, PIK3R1 / Fold change vs veh, PIK3R1 / RFU, HNRNPA1 / Fold change vs veh, HNRNPA1 / RFU, RNF170 / Fold change vs veh, RNF170 / RFU, ZNF28 / Fold change vs veh, ZNF28 / RFU, RNGTT / Fold change vs veh, RNGTT / RFU, OGT / Fold change vs veh, OGT / RFU, BRD1 / Fold change vs veh, BRD1 / RFU, MARS / Fold change vs veh, MARS / RFU, ZNF655 / Fold change vs veh, ZNF655 / RFU, FAHD1 / Fold change vs veh, FAHD1 / RFU, BDP1 / Fold change vs veh, BDP1 / RFU, LRRCC1 / Fold change vs veh, LRRCC1 / RFU, ARID1A / Fold change vs veh, ARID1A / RFU, ZNF146 / Fold change vs veh, ZNF146 / RFU, ZNF330 / Fold change vs veh, ZNF330 / RFU, GPN3 / Fold change vs veh, GPN3 / RFU, C9orf123 / Fold change vs veh, C9orf123 / RFU, N4BP2L2 / Fold change vs veh, N4BP2L2 / RFU, ARFIP1 / Fold change vs veh, ARFIP1 / RFU, FAM179B / Fold change vs veh, FAM179B / RFU, BCL10 / Fold change vs veh, BCL10 / RFU, UHRF1BP1L / Fold change vs veh, UHRF1BP1L / RFU, BET1 / Fold change vs veh, BET1 / RFU, CNOT2 / Fold change vs veh, CNOT2 / RFU, ZNF268 / Fold change vs veh, ZNF268 / Fold change vs veh, ZNF507 / RFU, DGCR2 / Fold change vs veh, DGCR2 / RFU, WDSUB1 / Fold change vs veh, WDSUB1 / Fold change vs veh, HSP90B1 /// MIR3652 / RFU, ADSS / Fold change vs veh, ADSS / RFU, GK / Fold change vs veh, GK / RFU, ZNF148 / Fold change vs veh, ZNF148 / RFU, TAF9 / Fold change vs veh, TAF9 / RFU, SLC1A5 / Fold change vs veh, SLC1A5 / RFU, SLMO2 / Fold change vs veh, SLMO2 / RFU, ABCC4 / Fold change vs veh, ABCC4 / RFU, LOC101060439 /// RAP1B / Fold change vs veh, LOC101060439 /// RAP1B / RFU, RFX7 / Fold change vs veh, RFX7 / RFU, GTPBP10 / Fold change vs veh, GTPBP10 / RFU, CNEP1R1 / Fold change vs veh, CNEP1R1 / RFU, BIVM-ERCC5 /// ERCC5 / Fold change vs veh, BIVM-ERCC5 /// ERCC5 / RFU, ILF3 / Fold change vs veh, ILF3 / RFU 11762660_at / Fold change /veh 11762660_at / RFU VCAN (11757783_s_at) / Fold change /veh VCAN (11757783_s_at) / RFU DDX43 (11728927_at) / Fold change /veh DDX43 (11728927_at) / RFU KRT8 (11758188_x_at) / Fold change /veh KRT8 (11758188_x_at) / RFU NKD1 (11759106_at) / Fold change /veh NKD1 (11759106_at) / RFU SRD5A1 (11742802_a_at) / Fold change /veh SRD5A1 (11742802_a_at) / RFU TPSAB1 /// TPSB2 (11721975_s_at) / Fold change /veh TPSAB1 /// TPSB2 (11721975_s_at) / RFU GSTM3 (11746129_a_at) / Fold change /veh GSTM3 (11746129_a_at) / RFU IL23R (11737362_x_at) / Fold change /veh IL23R (11737362_x_at) / RFU TMEM51 (11727254_a_at) / Fold change /veh TMEM51 (11727254_a_at) / RFU PIWIL2 (11732686_x_at) / Fold change /veh PIWIL2 (11732686_x_at) / RFU ORM1 (11744905_x_at) / Fold change /veh ORM1 (11744905_x_at) / RFU CCDC152 (11743942_at) / Fold change /veh CCDC152 (11743942_at) / RFU ECM1 (11717891_a_at) / Fold change /veh ECM1 (11717891_a_at) / RFU IL23R (11748794_a_at) / Fold change /veh IL23R (11748794_a_at) / RFU TNFAIP8L3 (11732012_x_at) / Fold change /veh TNFAIP8L3 (11732012_x_at) / RFU MBOAT4 (11741988_at) / Fold change /veh MBOAT4 (11741988_at) / RFU 11764193_at / Fold change /veh 11764193_at / RFU TMEM53 (11763286_at) / Fold change /veh TMEM53 (11763286_at) / RFU MAGEB2 (11727129_at) / Fold change /veh MAGEB2 (11727129_at) / RFU TMEM200A (11744735_a_at) / Fold change /veh TMEM200A (11744735_a_at) / RFU CCDC152 (11751479_a_at) / Fold change /veh CCDC152 (11751479_a_at) / RFU FAM211A (11726209_a_at) / Fold change /veh FAM211A (11726209_a_at) / RFU RGS16 (11746705_a_at) / Fold change /veh RGS16 (11746705_a_at) / RFU VCAN (11755009_s_at) / Fold change /veh VCAN (11755009_s_at) / RFU RHOB (11743442_s_at) / Fold change /veh RHOB (11743442_s_at) / RFU RGS16 (11720943_a_at) / Fold change /veh RGS16 (11720943_a_at) / RFU RGS16 (11720944_at) / Fold change /veh RGS16 (11720944_at) / RFU, VPS4B / Fold change vs veh, VPS4B / RFU, CREB1 / Fold change vs veh, CREB1 / RFU, DNAJC13 / Fold change vs veh, DNAJC13 / RFU, GNAQ / Fold change vs veh, GNAQ / RFU, CDK5R1 / Fold change vs veh, CDK5R1 / RFU, ZRANB3 / Fold change vs veh, ZRANB3 / RFU, CUL4A / Fold change vs veh, CUL4A / RFU, CCNY / Fold change vs veh, CCNY / RFU, UFL1 / Fold change vs veh, UFL1 / RFU, COG3 / Fold change vs veh, COG3 / RFU, DIAPH2 / Fold change vs veh, DIAPH2 / RFU, SKA2 / Fold change vs veh, SKA2 / RFU, AFF3 / Fold change vs veh, AFF3 / RFU, LMF1 / Fold change vs veh, LMF1 / RFU, IPO11 / Fold change vs veh, IPO11 / RFU, DFFB / Fold change vs veh, DFFB / RFU, FOXP1 / Fold change vs veh, FOXP1 / RFU, CARD8 / Fold change vs veh, CARD8 / RFU, STRN3 / Fold change vs veh, STRN3 / RFU, ADK / Fold change vs veh, ADK / RFU, RASSF2 / Fold change vs veh, RASSF2 / RFU, WIPF1 / Fold change vs veh, WIPF1 / RFU, LARP1B / Fold change vs veh, LARP1B / RFU, RASA1 / Fold change vs veh, RASA1 / RFU, RB1 / Fold change vs veh, RB1 / RFU, PPFIA1 / Fold change vs veh, PPFIA1 / RFU, MAT2A / Fold change vs veh, MAT2A / RFU, CCT5 / Fold change vs veh, CCT5 / RFU, WDR92 / Fold change vs veh, WDR92 / RFU, CUX1 / Fold change vs veh, CUX1 / RFU, TTC7A / Fold change vs veh, TTC7A / RFU, TMEM135 / Fold change vs veh, TMEM135 / RFU, DEPTOR / Fold change vs veh, DEPTOR / RFU, CPM / Fold change vs veh, CPM / RFU, DNAJB6 / Fold change vs veh, DNAJB6 / RFU, CACNA2D3 / Fold change vs veh, CACNA2D3 / RFU, DTX4 / Fold change vs veh, DTX4 / RFU, TFCP2 / Fold change vs veh, TFCP2 / RFU, GMCL1 /// GMCL1P1 / Fold change vs veh, GMCL1 /// GMCL1P1 / RFU, AEBP2 / Fold change vs veh, AEBP2 / RFU, SNHG1 /// SNORD22 /// SNORD25 /// SNORD26 /// SNORD27 /// SNORD28 /// SNORD29 /// SNORD31 / Fold change vs veh, SNHG1 /// SNORD22 /// SNORD25 /// SNORD26 /// SNORD27 /// SNORD28 /// SNORD29 /// SNORD31 / Fold change (Aza/veh), C12orf56 (ProbeSet 11735607_a_at) / Fold change (ACY-1035/veh), C12orf56 (ProbeSet 11735607_a_at) / Fold change (Aza/veh), FGFR1OP (ProbeSet 11751329_s_at) / Fold change (ACY-1035/veh), FGFR1OP (ProbeSet 11751329_s_at) / Fold change (Aza/veh), VPS36 (ProbeSet 11739960_a_at) / Fold change (ACY-1035/veh), VPS36 (ProbeSet 11739960_a_at) / RFU SYPL1 (11715823_x_at) / Fold change /veh SYPL1 (11715823_x_at) / RFU IGFBP7 (11715501_s_at) / Fold change /veh IGFBP7 (11715501_s_at) / RFU REEP3 (11722064_at) / Fold change /veh REEP3 (11722064_at) / RFU IGLL1 (11728026_x_at) / Fold change /veh IGLL1 (11728026_x_at): dose or concentration left out as unconfirmed
Conditions: MV-4-11 cells, 48 hours

SMILES: Nc1ncn([C@@H]2O[C@H](CO)[C@@H](O)[C@H]2O)c(=O)n1 [azacitidine]
- RFU PRSS12 (11739890_at): 6.78 RFU
